# Laboratory results as given in patent US20250170130A1, “MODULATORS OF MYC FAMILY PROTO-ONCOGENE PROTEIN” (Nalo Therapeutics, priority 2022, published 2025).
# Like-named read-outs stand apart in the source and are kept apart here.
# Experiments:
# MycC = molecular target: T1, MycC (Homo sapiens, UniProt P01106); test: Degradation of MycC protein in L363 cells, JESS/Western blot of lysates; type: cell-based; settings: L-363, 24 h; for Dmax at 0.5 µM: read-out: % Degradation of MycC (L-363) 24 h, 0.5 μM; for Dmax at 1 µM: read-out: % Degradation of MycC (L-363) 24 h, 1 μM; for Dmax at 3 µM: read-out: % Degradation of MycC (L-363) 24 h, 3 μM; for Dmax at 6 µM: read-out: % Degradation of MycC (L-363) 24 h, 6 μM
# T1 construct: endogenous in cells; host or cells: L363
# T1 sequence (P01106 whole entry): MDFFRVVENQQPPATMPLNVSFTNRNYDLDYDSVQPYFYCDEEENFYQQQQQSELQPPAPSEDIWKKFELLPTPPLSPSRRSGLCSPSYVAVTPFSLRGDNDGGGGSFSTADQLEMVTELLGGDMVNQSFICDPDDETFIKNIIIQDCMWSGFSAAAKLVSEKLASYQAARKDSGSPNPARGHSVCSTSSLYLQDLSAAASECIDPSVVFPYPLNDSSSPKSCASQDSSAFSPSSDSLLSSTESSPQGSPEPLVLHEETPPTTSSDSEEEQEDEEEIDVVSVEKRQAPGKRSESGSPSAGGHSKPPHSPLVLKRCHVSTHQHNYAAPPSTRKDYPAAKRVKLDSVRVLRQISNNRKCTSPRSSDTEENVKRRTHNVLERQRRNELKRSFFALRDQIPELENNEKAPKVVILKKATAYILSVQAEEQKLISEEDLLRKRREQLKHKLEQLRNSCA
# Experimental: For L363 cells (suspension), 1E6 cells were plated into each well of a 6 well plate. For SK-N-BE(2) cells (adherent), 5E5 cells were plated into each well of a 6 well dish. […] All compounds were diluted to 10 mM in DMSO. Cells were treated with the compound for 24 hrs, then for both cell types, media containing cells were removed from wells into a 15 ml centrifuge tube, and remaining adherent SK-N-BE(2) cells were also scraped from the wells into the appropriate tubes. Tubes were centrifuged, cells were washed with PBS then re-centrifuged to pellet cells. A RIPA buffer cocktail was added to the cells on ice for 5 mins. Cell lysates were clarified by centrifugation and stored at −80 degrees until required. BCA assay was performed on each lysate to determine the protein concentration.
# (§1) Once an appropriate lysate concentration and antibody concentration was determined, samples were screened in the JESS technology (Protein Simple, San Jose, CA—https://www.proteinsimple.com/jess.html).
# (§2) Target protein antibodies (n-myc and c-myc) were detected in the chemi-luminescence channel and loading controls (tubulin and GAPDH) were detected using a Near Infra Red (NIR) labeled secondary antibody.
# For SK-N-EB2 adherent cells, 5E5 cells in 1.9 mls media were plated into 6 well dishes and incubated for 24 hrs. […] Cells were scrapped off the plate, centrifuged, washed with PBS, centrifuged, then a RIPA buffer cocktail added to the cells (100 ul), centrifuged and stored at −80 for later analysis. For L363 suspension cells, 1E6 cells were plated into […] (950 ul media) and incubated for 24 hrs. […] Cells were aspirated into tubes, centrifuged, washed with PBS, centrifuged, then a RIPA buffer cocktail added to the cells (100 ul), centrifuged and stored at −80 for later analysis.
# (§3) For Western blot, a BCA (total protein) assay was run on all samples, these were then run in batches of 5 compounds plus control (DMSO) on each Western blot run—n-myc and c-myc were run in separate experiments in the chemiluminescence channel. Both tubulin and GAPDH were run as loading controls in all lanes in the near infra red channel.
# MycN = molecular target: T2, MycN (Homo sapiens, UniProt P04198); test: Degradation of MycN protein in SK-N-BE(2) cells, JESS/Western blot of lysates; type: cell-based; settings: SKNBE2, 24 h; for Dmax at 0.5 µM: read-out: % Degradation of MycN (SKNBE2) 24 h, 0.5 μM; for Dmax at 1 µM: read-out: % Degradation of MycN (SKNBE2) 24 h, 1 μM; for Dmax at 3 µM: read-out: % Degradation of MycN (SKNBE2) 24 h, 3 μM; for Dmax at 6 µM: read-out: % Degradation of MycN (SKNBE2) 24 h, 6 μM
# T2 construct: endogenous in cells; host or cells: SK-N-BE(2)
# T2 sequence (P04198 1-464): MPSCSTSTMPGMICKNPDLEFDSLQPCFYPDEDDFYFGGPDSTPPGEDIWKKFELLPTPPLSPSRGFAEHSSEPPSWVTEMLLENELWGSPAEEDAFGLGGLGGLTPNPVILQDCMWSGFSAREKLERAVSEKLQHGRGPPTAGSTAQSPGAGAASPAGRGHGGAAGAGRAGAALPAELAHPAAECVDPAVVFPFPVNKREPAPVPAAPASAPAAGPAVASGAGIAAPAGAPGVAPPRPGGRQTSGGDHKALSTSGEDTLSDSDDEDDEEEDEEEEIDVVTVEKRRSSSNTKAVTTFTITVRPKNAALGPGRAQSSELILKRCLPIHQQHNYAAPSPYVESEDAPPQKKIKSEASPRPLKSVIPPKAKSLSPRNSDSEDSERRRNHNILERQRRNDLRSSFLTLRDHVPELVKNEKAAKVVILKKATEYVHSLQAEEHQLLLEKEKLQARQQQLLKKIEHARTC
# Experimental: For L363 cells (suspension), 1E6 cells were plated into each well of a 6 well plate. For SK-N-BE(2) cells (adherent), 5E5 cells were plated into each well of a 6 well dish. Cells were cultured for 24 hrs then treated with exemplary compounds at […] final assay concentrations plus DMSO control. All compounds were diluted to 10 mM in DMSO. Cells were treated with the compound for 24 hrs, then for both cell types, media containing cells were removed from wells into a 15 ml centrifuge tube, and remaining adherent SK-N-BE(2) cells were also scraped from the wells into the appropriate tubes. Tubes were centrifuged, cells were washed with PBS then re-centrifuged to pellet cells. A RIPA buffer cocktail was added to the cells on ice for 5 mins. Cell lysates were clarified by centrifugation and stored at −80 degrees until required. BCA assay was performed on each lysate to determine the protein concentration.
# as §1, §2
# For SK-N-EB2 adherent cells, 5E5 cells in 1.9 mls media were plated into 6 well dishes and incubated for 24 hrs. Exemplary compounds were added (100 ul, 1 in 20 dilution in media) to each well (final assay concentration 6, 3, 1 and […]) together with DMSO control wells and incubated for 24 hrs. Cells were scrapped off the plate, centrifuged, washed with PBS, centrifuged, then a RIPA buffer cocktail added to the cells (100 ul), centrifuged and stored at −80 for later analysis. For L363 suspension cells, 1E6 cells were plated into 24 well dishes (950 ul media) and incubated for 24 hrs. Exemplary compounds were added (50 ul, 1 in 20 dilution in media) to each well (final assay concentration 6, 3, 1 and […]) together with DMSO control wells and incubated for 24 hrs. Cells were aspirated into tubes, centrifuged, washed with PBS, centrifuged, then a RIPA buffer cocktail added to the cells (100 ul), centrifuged and stored at −80 for later analysis.
# as §3
"Dmax at 0.5 µM (MycC; L-363 cells, 24 h, 0.5 μM)","Dmax at 1 µM (MycC; L-363 cells, 24 h, 1 μM)","Dmax at 3 µM (MycC; L-363 cells, 24 h, 3 μM)","Dmax at 6 µM (MycC; L-363 cells, 24 h, 6 μM)","Dmax at 0.5 µM (MycN; SKNBE2 cells, 24 h, 0.5 μM)","Dmax at 1 µM (MycN; SKNBE2 cells, 24 h, 1 μM)","Dmax at 3 µM (MycN; SKNBE2 cells, 24 h, 3 μM)","Dmax at 6 µM (MycN; SKNBE2 cells, 24 h, 6 μM)",SMILES,Dmax at 0.5 µM (MycC),Dmax at 1 µM (MycC),Dmax at 3 µM (MycC),Dmax at 6 µM (MycC),Dmax at 0.5 µM (MycN),Dmax at 1 µM (MycN),Dmax at 3 µM (MycN),Dmax at 6 µM (MycN)
< 20%,< 20%,80 to 100%,80 to 100%,20 to 49%,50 to 79%,50 to 79%,80 to 100%,"NC[C@@H]1CCCN(c2nccc(Nc3cc(C4CCCC4)[nH]n3)n2)C1 [Compound 109, 2-[(3S)-3-(Aminomethyl)-1-piperidyl]-N-(5-cyclopentyl-1H-pyrazol-3-yl)pyrimidin-4-amine]",,,,,,,,
20 to 49%,20 to 49%,< 20%,20 to 49%,,,,20 to 49%,"CN1CC2(C1)CN(c1nccc(Nc3cc(C4CCCC4)[nH]n3)n1)C2 [Compound 84, N-(5-cyclopentyl-1H-pyrazol-3-yl)-2-(6-methyl-2,6-diazaspiro[3.3]heptan-2-yl)pyrimidin-4-amine]",,,,,,,,
< 20%,< 20%,80 to 100%,80 to 100%,< 20%,< 20%,80 to 100%,80 to 100%,"CS(=O)(=O)CCNCC12CC(C1)N(c1nccc(Nc3cc(C4CCCC4)[nH]n3)n1)C2 [Compound 68, N-(5-Cyclopentyl-1H-pyrazol-3-yl)-2-[4-[(2-methylsulfonylethylamino)methyl]-2-azabicyclo[2.1.1]hexan-2-yl]pyrimidin-4-amine]",,,,,,,,
< 20%,< 20%,,80 to 100%,< 20%,20 to 49%,80 to 100%,80 to 100%,"CC(F)(F)CNCC12CC(C1)N(c1nccc(Nc3cc(C4CCCC4)[nH]n3)n1)C2 [Compound 103, N-(5-Cyclopentyl-1H-pyrazol-3-yl)-2-[4-[(2,2-difluoropropylamino)methyl]-2-azabicyclo[2.1.1]hexan-2-yl]pyrimidin-4-amine]",,,,,,,,

# The remaining lines, values behind:
SMILES,"Dmax at 0.5 µM (MycC; L-363 cells, 24 h, 0.5 μM)","Dmax at 1 µM (MycC; L-363 cells, 24 h, 1 μM)","Dmax at 3 µM (MycC; L-363 cells, 24 h, 3 μM)","Dmax at 6 µM (MycC; L-363 cells, 24 h, 6 μM)","Dmax at 0.5 µM (MycN; SKNBE2 cells, 24 h, 0.5 μM)","Dmax at 1 µM (MycN; SKNBE2 cells, 24 h, 1 μM)","Dmax at 3 µM (MycN; SKNBE2 cells, 24 h, 3 μM)","Dmax at 6 µM (MycN; SKNBE2 cells, 24 h, 6 μM)",Dmax at 0.5 µM (MycC),Dmax at 1 µM (MycC),Dmax at 3 µM (MycC),Dmax at 6 µM (MycC),Dmax at 0.5 µM (MycN),Dmax at 1 µM (MycN),Dmax at 3 µM (MycN),Dmax at 6 µM (MycN)
"COCCNCC12CC(C1)N(c1nccc(Nc3cc(C4CCCC4)[nH]n3)n1)C2 [Compound 67, N-(5-Cyclopentyl-1H-pyrazol-3-yl)-2-[4-[(2-methoxyethylamino)methyl]-2-azabicyclo[2.1.1]hexan-2-yl]pyrimidin-4-amine]",,,,,,,,,< 20%,< 20%,80 to 100%,80 to 100%,< 20%,50 to 79%,80 to 100%,80 to 100%
"CN(C)CC1CCN(c2nccc(Nc3cc(C4CC4)[nH]n3)n2)CC1 [Compound 5, N-(5-Cyclopropyl-1H-pyrazol-3-yl)-2-(4-((dimethylamino)methyl)piperidin-1-yl)pyrimidin-4-amine]",< 20%,< 20%,20 to 49%,20 to 49%,,,,20 to 49%,,,,,,,,
"NC[C@@H]1CN(c2nccc(Nc3cc(C4CCCC4)[nH]n3)n2)CCO1 [Compound 116, 2-[(2R)-2-(Aminomethyl)morpholin-4-yl]-N-(5-cyclopentyl-1H-pyrazol-3-yl)pyrimidin-4-amine]",,< 20%,80 to 100%,80 to 100%,< 20%,< 20%,80 to 100%,80 to 100%,,,,,,,,
"CN(C)C[C@H]1CCN(c2nccc(Nc3cc(C4CC4)[nH]n3)n2)C1 (stereo in doubt) [Compound 32, N-(5-cyclopropyl-1H-pyrazol-3-yl)-2-[rac-(3R)-3-[(dimethylamino)methyl]pyrrolidin-1-yl]pyrimidin-4-amine]",,< 20%,,< 20%,20 to 49%,20 to 49%,50 to 79%,50 to 79%,,,,,,,,
"CN1CCCC2(C1)CN(c1nccc(Nc3cc(C4CC4)[nH]n3)n1)C2 [Compound 104, N-(5-cyclopropyl-1H-pyrazol-3-yl)-2-(8-methyl-2,8-diazaspiro[3.5]nonan-2-yl)pyrimidin-4-amine]",,< 20%,,20 to 49%,,< 20%,20 to 49%,20 to 49%,,,,,,,,
"NCC1CN(c2nccc(Nc3cc(C4CC4)[nH]n3)n2)CC1(F)F (centres unmarked) [Compound 124, 2-[4-(Aminomethyl)-3,3-difluoro-pyrrolidin-1-yl]-N-(5-cyclopropyl-1H-pyrazol-3-yl)pyrimidin-4-amine]",,< 20%,,80 to 100%,20 to 49%,20 to 49%,20 to 49%,80 to 100%,,,,,,,,
